Test results taken from patent publication US20230391772A1, “METHODS AND COMPOSITIONS FOR TARGETED PROTEIN DEGRADATION” (Ranok Therapeutics (Hangzhou) Co. Ltd., priority 2020, published 2023).

Key:
KRAS(G12C) [1] = molecular target: T1, KRAS(G12C) (Homo sapiens, UniProt P01116, G12C); test: KRAS(G12C)/SOS1 homogeneous time-resolved fluorescence (HTRF) assay; design: purchased Cisbio 63ADK000CB16PEG; settings: absence of GTP, 4° C. for 3 hr, read-out: KRAS (G12C) binding
Outline: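 HTRF kit measuring compound-induced block of KRAS(G12C)-SOS1 interaction without GTP. Compounds tested as 3-fold serial dilutions down to 1.02 nM, incubated with reaction components 3 h at 4 °C in sealed plates before fluorescence read.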

HSP90a protein = molecular target: T2, HSP90a protein (Homo sapiens, UniProt P07900); test: HSP90α-binding fluorescent polarization (FP) assay, BODIPY-labeled RNK04010 probe; settings: FP competition with RNK04010 (BODIPY-labeled), 5 nM, 300 min at 25° C.
T2 construct: purchased BPS Bioscience 50298
Outline: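 Displacement of a 5 nM fluorescent HSP90 ligand from the N-terminal HSP90a domain by FP. Incubation ran at 25° C: 120 min for the FITC-geldanamycin tracer, 300 min for the BODIPY-conjugated triazolone RNK04010.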

KRAS(G12C) [2] = molecular target: T1, KRAS(G12C); test: KRAS(G12C) Western blot protein degradation assay in MIA PaCa-2 cells; format: cell-based; design: host or cells: LU65A; settings: 48 hr; for inhibition at 0.1562 µM: 156.2 nM; for inhibition at 0.3125 µM: 312.5 nM; for inhibition at 0.625 µM: 625 nM; for inhibition at 1.25 µM: 1250 nM; for inhibition at 2.5 µM: 2500 nM; for inhibition at 5 µM: 5000 nM; for inhibition at 10 µM: 10,000 nM
Description: The following cancer cell lines were employed: BT-474 human breast carcinoma (ATCC, #HTB-20); MIA PaCa-2 human pancreatic carcinoma [2 copies KRAS(G12C)](ATCC, #CRL-1420); NCI-H23 human non-small cell lung cancer [1 copy KRAS(G12C)](ATCC, #CRL-5800); NCI-H358 human non-small cell lung cancer [1 copy KRAS(G12C)](ATCC, #CRL-5807); LU65A human lung carcinoma (Pharmaron, Beijing, China). Cell lines were cultured essentially according to ATCC and Pharmaron recommendations.
KRAS(G12C) Western Blot Protein Degradation Assay
The MIA PaCa-2 human pancreatic carcinoma cell line and LU65A human lung cancer cell line, which expresses KRAS(G12C), were seeded in 6- or 12-well tissue culture plates, and after 1 hr, test compounds were added at various concentrations and incubated at 37° C./5% CO2 for 48 hr (MIA Paca-2) and 6 hr (LU65A) respectively. Cells were then washed with cold PBS, aspirated and cold RIPA buffer containing a protease/phosphatase inhibitor cocktail was added to lyse cells. After centrifugation, the total protein concentrations of cell lysates were determined using the BCA protein assay. Samples were normalized for equivalent protein concentrations, 5×SDS-PAGE loading buffer added and denatured at 100° C. for 10 min. 20 μl of each sample/well was loaded on a SDS-PAGE gel and electrophoresed for 20 min at 80 V, then 120 V for 1.5 hr. Gels were then electroblotted to nitrocellulose membranes using a wet-transfer method at 250 mA for 2.5 hr. Membranes were incubated with blocking buffer for 1 hr and washed 3 times with TBST for 5 min. Membranes were then incubated with anti-KRAS (Sigma-Aldrich, #SAB1404011) and anti-β-Actin monoclonal antibodies (Cell Signaling Technology, #3700) diluted in blocking buffer at 4° C. overnight per the manufacturer's recommendations. After washing 3 times, blots were incubated with appropriately labeled secondary antibodies for 1 hr at room temperature and washed again. Fluorescence imaging and quantitation was performed using a LI-COR Odyssey. Results was analyzed using GraphPad Prism 7 software. Compound degradation of was determined by the following equation and DC50 values (the concentration at which 50% of the maximal degradation of KRAS occurs) calculated using GraphPad Prism 7 software:
% Inhibition=100−(D−B)/(S−B)*100%. • S: Fluorescence intensity of cells with antibody • D: Fluorescence intensity of compound-treated cells with antibody • B: Fluorescence intensity of cells without antibody

[3] = tested on: NCI-H358 human non-small cell lung cancer; test: NCI-H358 CCK-8 proliferation assay; format: cell-based; settings: NCI-H358 cells, 72 hr
Outline: (§1)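 KRAS(G12C) lines were used: MIA PaCa-2 with 2 copies, and NCI-H358 and NCI-H23 with 1 copy each. Cells were treated with 3-fold compound dilutions from 20 μM to 1.02 nM, and proliferation was read by CCK-8 absorbance. % inhibition was calculated against DMSO-treated cells after subtracting the cell-free medium blank.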

[4] = tested on: MIA PaCa-2 human pancreatic carcinoma; test: MIA PaCa-2 CCK-8 proliferation assay; format: cell-based; settings: Homo sapiens, MIA PaCa-2, 72 h, MIA PaCa-2 cells
Outline: as §1

KRAS(G12C) [5] = molecular target: T1, KRAS(G12C); test: KRAS(G12C) Western blot protein degradation assay in LU65A cells; format: cell-based; design: LU65A human lung cancer cell line, which expresses KRAS(G12C); host or cells: LU65A; settings: 6 hr
Outline: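 Cells treated with compound at various concentrations at 37 °C for 48 hr (MIA PaCa-2) or 6 hr (LU65A), then lysed in RIPA. Protein-normalized lysates immunoblotted for KRAS with β-actin, fluorescence quantified; DC50 is the concentration giving 50% of maximal KRAS degradation.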

T1 sequence (P01116 1-188 isoform P01116-2 G12C): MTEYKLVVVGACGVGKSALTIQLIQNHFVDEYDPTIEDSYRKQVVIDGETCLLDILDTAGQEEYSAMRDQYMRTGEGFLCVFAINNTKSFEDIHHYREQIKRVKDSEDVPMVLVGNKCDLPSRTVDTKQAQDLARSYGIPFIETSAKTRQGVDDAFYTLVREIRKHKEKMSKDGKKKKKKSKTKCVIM

Row | Compound | IC50 (KRAS(G12C) [1]) [µM] | IC50 (HSP90a protein) [µM] | inhibition at 0.1562 µM (KRAS(G12C) [2]) [%] | inhibition at 0.3125 µM (KRAS(G12C) [2]) [%] | inhibition at 0.625 µM (KRAS(G12C) [2]) [%] | inhibition at 1.25 µM (KRAS(G12C) [2]) [%] | inhibition at 2.5 µM (KRAS(G12C) [2]) [%] | inhibition at 5 µM (KRAS(G12C) [2]) [%] | inhibition at 10 µM (KRAS(G12C) [2]) [%] | EC50 [3] [µM] | EC50 [4] [µM] | DC50 (KRAS(G12C) [5]) [µM]
1 | C=CC(=O)N1CCN(c2nc(OC[C@@H]3CCN(C(=O)C4CCN(Cc5ccc(-n6c(O)nnc6-c6cc(C(C)C)c(O)cc6O)cc5)CC4)C3)nc3c2CCN(c2cccc4cccc(Cl)c24)C3)C[C@@H]1CC#N [Compound 148, 2-((S)-1-acryloyl-4-(7-(8-chloronaphthalen-1-yl)-2-(((R)-1-(1-(4-(3-(2,4-dihydroxy-5-isopropylphenyl)-5-hydroxy-4H-1,2,4-triazol-4-yl)benzyl)piperidine-4-carbonyl)pyrrolidin-3-yl)methoxy)-5,6,7,8-tetrahydropyrido[3,4-d]pyrimidin-4-yl)piperazin-2-yl)acetonitrile] | 0.1 to 1 | < 0.1 | < 33 | < 33 | < 33 | < 33 | < 33 | < 33 | 33 to 66 | 0.1 to 1 | 0.1 to 1 | 
2 | C=CC(=O)N1CCN(c2nc(OC[C@@H]3CCN(C(=O)c4cc(C(C)C)c(O)cc4OC)C3)nc3c2CCN(c2cccc4cccc(Cl)c24)C3)C[C@@H]1CC#N [Compound 153, 2-((S)-1-acryloyl-4-(7-(8-chloronaphthalen-1-yl)-2-(((R)-1-(4-hydroxy-5-isopropyl-2-methoxybenzoyl)pyrrolidin-3-yl)methoxy)-5,6,7,8-tetrahydropyrido[3,4-d]pyrimidin-4-yl)piperazin-2-yl)acetonitrile] |  | > 1 | < 33 | < 33 | < 33 | < 33 | < 33 | < 33 | < 33 | > 1 | > 1 | 
3 | C=CC(=O)N1CCN(c2nc(OC[C@@H]3CCN(C(=O)c4cc(C(C)C)c(O)cc4O)C3)nc3c2CCN(c2cccc4cccc(Cl)c24)C3)C[C@@H]1CC#N [Compound 157, 2-((S)-1-acryloyl-4-(7-(8-chloronaphthalen-1-yl)-2-(((R)-1-(2,4-dihydroxy-5-isopropylbenzoyl)pyrrolidin-3-yl)methoxy)-5,6,7,8-tetrahydropyrido[3,4-d]pyrimidin-4-yl)piperazin-2-yl)acetonitrile] | > 1 | > 1 | < 33 | < 33 | < 33 | < 33 | < 33 | < 33 | < 33 | > 1 |  | 
4 | C=CC(=O)N1CCN(c2nc(OC[C@@H]3CCN(C(=O)c4cc(CC)c(O)cc4O)C3)nc3c2CCN(c2cccc4cccc(Cl)c24)C3)C[C@@H]1CC#N [Compound 158, 2-((S)-1-acryloyl-4-(7-(8-chloronaphthalen-1-yl)-2-(((R)-1-(5-ethyl-2,4-dihydroxybenzoyl)pyrrolidin-3-yl)methoxy)-5,6,7,8-tetrahydropyrido[3,4-d]pyrimidin-4-yl)piperazin-2-yl)acetonitrile] | > 1 | > 1 | < 33 | < 33 | < 33 | < 33 | < 33 | < 33 | < 33 | > 1 | > 1 | 
5 | C=CC(=O)N1CCN(c2nc(OC[C@@H]3CCN(C(=O)c4cc(C(C)C)c(OC)cc4O)C3)nc3c2CCN(c2cccc4cccc(Cl)c24)C3)C[C@@H]1CC#N [Compound 159, 2-((S)-1-acryloyl-4-(7-(8-chloronaphthalen-1-yl)-2-(((R)-1-(2-hydroxy-5-isopropyl-4-methoxybenzoyl)pyrrolidin-3-yl)methoxy)-5,6,7,8-tetrahydropyrido[3,4-d]pyrimidin-4-yl)piperazin-2-yl)acetonitrile] | > 1 | > 1 | < 33 | < 33 | < 33 | < 33 | < 33 | < 33 | < 33 | > 1 |  | 
6 | C=CC(=O)N1CCN(c2nc(OC[C@@H]3CCN(C(=O)C4CCN(Cc5ccc(-n6c(C(N)=O)nnc6-c6cc(C(C)C)c(O)cc6O)cc5)CC4)C3)nc3c2CCN(c2cccc4cccc(Cl)c24)C3)C[C@@H]1CC#N [Compound 183, 4-(4-((4-((R)-3-(((4-((S)-4-acryloyl-3-(cyanomethyl)piperazin-1-yl)-7-(8-chloronaphthalen-1-yl)-5,6,7,8-tetrahydropyrido[3,4-d]pyrimidin-2-yl)oxy)methyl)pyrrolidine-1-carbonyl)piperidin-1-yl)methyl)phenyl)-5-(2,4-dihydroxy-5-isopropylphenyl)-4H-1,2,4-triazole-3-carboxamide] |  | 0.1 to 1 | < 33 | < 33 | < 33 | 33 to 66 | 33 to 66 | > 66 | > 66 |  | 0.1 to 1 | 
7 | C=CC(=O)N1CCN(c2nc(OC[C@@H]3CCN(C(=O)C4CCN(Cc5ccc(-n6c(C(=O)NCC(F)(F)F)nnc6-c6cc(C(C)C)c(O)cc6O)cc5)CC4)C3)nc3c2CCN(c2cccc4cccc(Cl)c24)C3)C[C@@H]1CC#N [Compound 185, 4-(4-((4-((R)-3-(((4-((S)-4-acryloyl-3-(cyanomethyl)piperazin-1-yl)-7-(8-chloronaphthalen-1-yl)-5,6,7,8-tetrahydropyrido[3,4-d]pyrimidin-2-yl)oxy)methyl)pyrrolidine-1-carbonyl)piperidin-1-yl)methyl)phenyl)-5-(2,4-dihydroxy-5-isopropylphenyl)-N-(2,2,2-trifluoroethyl)-4H-1,2,4-triazole-3-carboxamide] | 0.1 to 1 | 0.1 to 1 | < 33 | < 33 | < 33 | 33 to 66 | > 66 | > 66 | > 66 |  | < 0.1 | 
8 | C=CC(=O)N1CCN(c2nc(OC[C@@H]3CCN(CCC(=O)c4cc(C(C)C)c(O)cc4O)C3)nc3c2CCN(c2cccc4cccc(Cl)c24)C3)C[C@@H]1CC#N [Compound 186, 2-((S)-1-acryloyl-4-(7-(8-chloronaphthalen-1-yl)-2-(((R)-1-(3-(2,4-dihydroxy-5-isopropylphenyl)-3-oxopropyl)pyrrolidin-3-yl)methoxy)-5,6,7,8-tetrahydropyrido[3,4-d]pyrimidin-4-yl)piperazin-2-yl)acetonitrile, trifluoroacetic acid] | 0.1 to 1 | > 1 |  |  |  |  |  |  | 33 to 66 |  |  | > 1
